The assay relates to peripheral blood mononuclear cell (PBMC). The experiment in a line: Cell chromatography retention time of drug-treated PBMC on polystyrene column (150 mm×10 mm), detection at 500 nm. The format is cell-based. Particulars: PBMC treated with 10 μg/ml for 2 minutes; PBS pH 7.4, 1 ml/min; un-treated control about 7.7 minutes; FIG. 3. Here is the method: In this example, the column used for analysis of the interaction between small molecule and cell has an inner diameter of 10 mm, a length of 150 mm and a volume of 11.8 ml (150 mm×10 mm). This column was packed with resin particles (size: 1 or 2 millimeter; material: polystyrene) and was washed first and thereafter, filled with a phosphate buffered saline (PBS).
The method is similar as described as above. Whole Blood was separated first by centrifugation using dextran cell separation medium (Ficoll) to yield peripheral blood mononuclear cell (PBMC). Then PBMC was diluted with phosphate buffered saline (PBS) into a cell suspension at concentration of 1×10^6 cells/ml.
Lectin: treated PBMC by 10 μg/ml lectin for two minutes;
Shikonin: treated PBMC by 10 μg/ml shikonin for two minutes.
The cell suspension was added with lectin or shikonin at a concentration of 10 μg/ml (lectin treated group or shikonin treated group). After reacting for 2 minutes, drug-treaded group or un-treated group (control) was loaded on the upper frontier of the column (150 mm×10 mm) respectively, and after adding PBS (pH 7.4) to a level of a pre-determined height, the column was eluted with PBS (pH 7.4) at a steady flow rate of 1 ml/min provided under the action of a pump and integrated with a spectrophotometer, which eluted cells were continuously detected with a wavelength of 500 nm. […]

As to `CC(C)=CC[C@@H](O)C1=CC(=O)c2c(O)ccc(O)c2C1=O` [shikonin], the “retention time of treated cell in the column” value turned out to be 6.5 min.

The values are drawn from patent publication US20090208981A1, “Method for Analysis of Interaction Between Small Molecules and Cells and Apparatus thereof” (priority 2005, published 2009).
